Measurements as given in ChEMBL document CHEMBL1759928, “Synthesis and evaluation of library of betulin derivatives against the botulinum neurotoxin A protease” (Bioorg Med Chem Lett, 2011).
Active and inactive are the calls of the source. No cut-off for these calls is given here.

These molecules were tested against Botulinum neurotoxin type A (Clostridium botulinum, UniProt P0DPI0) (assay: Inhibition of Clostridium BoNT/A protease light chain). Details: not given.
Chain of Botulinum neurotoxin type A (P0DPI0 2-448 limits assumed): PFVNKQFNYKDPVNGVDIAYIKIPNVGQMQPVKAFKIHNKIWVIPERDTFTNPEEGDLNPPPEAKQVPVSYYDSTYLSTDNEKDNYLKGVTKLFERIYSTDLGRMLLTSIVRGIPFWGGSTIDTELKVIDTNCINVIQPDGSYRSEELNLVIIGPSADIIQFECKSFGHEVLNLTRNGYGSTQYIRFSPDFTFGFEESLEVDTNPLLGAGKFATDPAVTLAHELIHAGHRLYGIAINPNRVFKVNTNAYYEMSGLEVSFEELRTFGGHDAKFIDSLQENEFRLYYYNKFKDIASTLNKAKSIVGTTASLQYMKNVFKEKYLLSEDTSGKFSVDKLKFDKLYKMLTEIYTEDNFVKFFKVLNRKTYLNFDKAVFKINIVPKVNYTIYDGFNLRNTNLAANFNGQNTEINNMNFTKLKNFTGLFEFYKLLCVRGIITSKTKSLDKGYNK

SMILES | IC50 | Ki
C=C(C)[C@@H]1CC[C@]2(C(=O)O)CC[C@]3(C)[C@H](CC[C@@H]4[C@@]5(C)CC[C@H](O)C(C)(C)[C@@H]5CC[C@]43C)[C@@H]12 [BETULINIC ACID] | 20 µM | 14.3 µM
C=C(C)[C@@H]1CC[C@]2(COC(=O)COc3cc(C(C)C)ccc3C)CC[C@]3(C)[C@H](CC[C@@H]4[C@@]5(C)CC[C@H](O)C(C)(C)[C@@H]5CC[C@]43C)[C@@H]12 | 10 µM | 13.3 µM
C=C(C)[C@@H]1CC[C@]2(COC(=O)CCC(=O)O)CC[C@]3(C)[C@H](CC[C@@H]4[C@@]5(C)CC[C@H](O)C(C)(C)[C@@H]5CC[C@]43C)[C@@H]12 | 1.5 µM | 0.8 µM
C=C(C)[C@@H]1CC[C@]2(C(=O)O)CC[C@]3(C)[C@H](CC[C@@H]4[C@@]5(C)CCC(=O)C(C)(C)[C@@H]5CC[C@]43C)[C@@H]12 [BETUNOLIC ACID] | < 100 µM | –
C=C(C)[C@@H]1CC[C@]2(C(=O)OC)CC[C@]3(C)[C@H](CC[C@@H]4[C@@]5(C)CC[C@H](O)C(C)(C)[C@@H]5CC[C@]43C)[C@@H]12 [METHYL BETULINATE] | < 100 µM | –

What follows are molecules tested against Botulinum neurotoxin type A (Clostridium botulinum) (UniProt P0DPI0). Details: 0.67 to 18 uM.
Chain of Botulinum neurotoxin type A (Clostridium botulinum) (P0DPI0 2-448 limits assumed): as above

SMILES | inhibition
C=C(C)[C@@H]1CC[C@]2(COC(=O)CCC(=O)O)CC[C@]3(C)[C@H](CC[C@@H]4[C@@]5(C)CC[C@H](O)C(C)(C)[C@@H]5CC[C@]43C)[C@@H]12 | Active
